In patent publication US5945440A, “Indolocarbazole imides and the use thereof” (priority 1992, dated 1999):
pIC50: −log10 of the molar value. Like-named read-outs stand apart in the source and are kept apart here.

What was measured:
[1] = biological target: T1, MLC kinase (myosin light-chain kinase) (Gallus gallus, UniProt P11799); test: inhibition of MLC kinase, in vitro enzyme test (32P phosphate incorporation); format: biochemical, chicken (stomach); details: for MLC kinase inhibition, in words: potency and selectivity vs protein kinase C; for ratio of IC50 C-kinase/IC50 MLC-kinase: selectivity factor calculated from the IC50 values
T1 construct: MLC kinase was purified from chicken stomach; from tissue; host or cells: chicken stomach (gizzard smooth muscle)
T1 sequence (P11799 935-1906): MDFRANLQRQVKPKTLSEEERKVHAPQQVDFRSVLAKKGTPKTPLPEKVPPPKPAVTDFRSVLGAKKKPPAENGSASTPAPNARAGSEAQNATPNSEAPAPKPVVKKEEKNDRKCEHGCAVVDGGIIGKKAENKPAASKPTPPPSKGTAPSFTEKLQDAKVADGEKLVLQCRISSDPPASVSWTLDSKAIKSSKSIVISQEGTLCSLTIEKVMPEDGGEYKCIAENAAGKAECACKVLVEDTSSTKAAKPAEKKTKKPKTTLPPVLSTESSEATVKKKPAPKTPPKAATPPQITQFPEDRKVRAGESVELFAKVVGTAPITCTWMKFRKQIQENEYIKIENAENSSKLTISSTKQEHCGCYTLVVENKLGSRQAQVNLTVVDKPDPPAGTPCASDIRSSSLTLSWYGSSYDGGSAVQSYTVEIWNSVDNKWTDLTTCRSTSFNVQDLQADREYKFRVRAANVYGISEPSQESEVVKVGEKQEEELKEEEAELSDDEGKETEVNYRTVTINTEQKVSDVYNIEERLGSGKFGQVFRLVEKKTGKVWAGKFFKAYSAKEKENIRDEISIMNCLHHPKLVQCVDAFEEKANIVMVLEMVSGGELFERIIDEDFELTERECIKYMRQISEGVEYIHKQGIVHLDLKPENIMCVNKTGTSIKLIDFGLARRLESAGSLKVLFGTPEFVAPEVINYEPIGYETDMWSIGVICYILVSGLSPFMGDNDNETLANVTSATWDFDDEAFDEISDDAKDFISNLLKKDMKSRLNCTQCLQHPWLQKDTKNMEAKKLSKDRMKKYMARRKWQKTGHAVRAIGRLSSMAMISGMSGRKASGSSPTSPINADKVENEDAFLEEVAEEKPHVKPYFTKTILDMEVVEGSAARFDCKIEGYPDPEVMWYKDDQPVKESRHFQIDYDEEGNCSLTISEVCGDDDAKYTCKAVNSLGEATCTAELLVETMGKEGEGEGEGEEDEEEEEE
Experimental: Inhibition of the enzyme MLC kinase (EC 3.6.1.3; kinase of the light myosin chain; myosin light-chain kinase).
The inhibition of MLC kinase was measured in an in vitro enzyme test.
The reaction was initiated by the addition of 1 nM MLC kinase. After incubation for 20 minutes at 30° C., the reaction was stopped with TCA and the samples then filtered off. The phosphate incorporation took place by means of Cerenkov counting of the filter.

[2] = biological target: protein kinase C; test: inhibition of protein kinase C, enzyme test; format: biochemical; details: read-out: inhibition of the protein kinases, C-kinase IC50
Experimental: In order to ascertain whether it is a question of a selective inhibition of MLC kinase, the compounds were also investigated in other enzyme tests for protein kinase, including tests for protein kinase C. The results from the PKC test are also given in the following Table I. Furthermore, the Table contains selectivity factors which were calculated by the determination of the ratios of the IC50 values.

[3] = test system: narcotised, spontaneously hypertensive rat (SHR); test: anti-hypertensive action in narcotised spontaneously hypertensive rats, i.v.; format: in vivo; details: for reduction of the average arterial blood pressure / reduction of the heart frequency: 60 minutes after administration, average ± SD
Experimental: As test model, there was used the narcotised, spontaneously hypertensive rat (SHR). After intravenous administration of the inhibitor of MLC kinase, in each case 60 minutes after the administration of the compound, there were found the reductions of the average arterial blood pressure set out in the following Table 2.

[4] = 1 nM MLC kinase, 250 μM ATP, pH 7.2, 20 minutes at 30° C., read-out: inhibition of the protein kinases, MLC-kinase IC50

Row | SMILES | pIC50 [1, 4] | MLC kinase inhibition, in words [1] | ratio of IC50 C-kinase/IC50 MLC-kinase [1] | pIC50 [2] | other results
1 | NC(=O)CCn1c2ccccc2c2c3c(c4c5ccccc5[nH]c4c21)C(=O)NC3=O [Example 5, 12-(2-Carbamoylethyl)-6,7,12,13-tetrahydro-5,7-dioxo-5H-indolo[2,3-a]pyrrolo[3,4-c]carbazole] | 8.43 | potent and selective inhibitors of MLC kinase | 24 | 7.06 | reduction of the average arterial blood pressure ([3]; 1 mg/kg i.v.): 15 ± 5%; reduction of the heart frequency ([3]; 1 mg/kg i.v.): 3 ± 3%; reduction of the average arterial blood pressure ([3]; 3 mg/kg i.v.): 23 ± 3%; reduction of the heart frequency ([3]; 3 mg/kg i.v.): 7 ± 4%; reduction of the average arterial blood pressure ([3]; 10 mg/kg i.v.): 40 ± 8%; reduction of the heart frequency ([3]; 10 mg/kg i.v.): 4 ± 3%; anti-hypertensive action, in words ([3]; i.v.): dosage-dependent anti-hypertensive action could be demonstrated; influencing of the heart frequency, in words ([3]; i.v.): scarcely observable
2 | COc1ccc2[nH]c3c(c4c(c5c6cc(OC)ccc6n(C)c35)C(=O)NC4=O)c2c1 [Example 7b, 6,7,12,13-tetrahydro-3,9-dimethoxy-12-methyl-5,7-dioxo-5H-indolo[2,3-a]pyrrolo[3,4-c]carbazole] | 8.06 | potent and selective inhibitors of MLC kinase | > 1149 | < 5.00 | 
3 | COc1ccc2[nH]c3c(c4c(c5c6ccccc6n(C)c35)C(=O)NC4=O)c2c1 [Example 7d, 6,7,12,13-tetrahydro-3-methoxy-12-methyl-5,7-dioxo-5H-indolo[2,3-a]pyrrolo[3,4-c]carbazole] | 8.08 |  | 3.0 | 7.60 | 
4 | O=C1NC(=O)c2c1c1c3ccccc3[nH]c1c1c2c2ccccc2n1CC(O)CO (centres unmarked) [Example 8, 12-(2,3-Dihydroxy-1-propyl)-6,7,12,13-tetrahydro-5,7-dioxo-5H-indolo[2,3-a]pyrrolo[3,4-c]carbazole] | 8.28 |  | 11.3 | 7.23 | 
5 | O=C1NC(=O)c2c1c1c3ccccc3[nH]c1c1[nH]c3ccccc3c21 [Example 11a, 6,7,12,13-tetrahydro-5,7-dioxo-5H-indolo[2,3-a]pyrrolo[3,4-c]carbazole] |  |  | 4.5 | 5.72 | pIC50 [1]: 6.38
6 | COc1ccc2[nH]c3c4[nH]c5ccccc5c4c4c(c3c2c1)C(=O)NC4=O [Example 11b, 6,7,12,13-tetrahydro-3-methoxy-5,7-dioxo-5H-indolo[2,3-a]pyrrolo[3,4-c]carbazole] | 7.22 |  | 4.7 | 6.55 | 
7 | O=C1NC(=O)c2c1c1c3ccccc3[nH]c1c1[nH]c3cc(Cl)ccc3c21 [Example 11c, 2-chloro-6,7,12,13-tetrahydro-5,7-dioxo-5H-indolo[2,3-a]pyrrolo[3,4-c]carbazole] | 7.07 | potent and selective inhibitors of MLC kinase | 47 | 5.40 | 
8 | Cc1ccc2[nH]c3c4[nH]c5ccc(C)cc5c4c4c(c3c2c1)C(=O)NC4=O [Example 11e, 6,7,12,13-tetrahydro-3,9-dimethyl-5,7-dioxo-5H-indolo[2,3-a]pyrrolo[3,4-c]carbazole] | 6.22 |  | > 17 | < 5.00 | 
9 | O=C1NC(=O)c2c1c1c3cc(Br)ccc3[nH]c1c1[nH]c3ccc(Br)cc3c21 [Example 11g, 3,9-dibromo-6,7,12,13-tetrahydro-5,7-dioxo-5H-indolo[2,3-a]pyrrolo[3,4-c]carbazole] | 6.43 |  | 12 | 5.34 | 
